{
  "source": "patent US8101766B2",
  "about": "“Crystalline form of a biphenyl compound” (Theravance, Inc., priority 2004, dated 2012)",
  "key": {"[1]": {"molecular_target": "T1, human M3 muscarinic receptor (Homo sapiens, UniProt P20309)", "T1 construct": "expressed in transfected cells", "T1 sequence (P20309 whole entry)": "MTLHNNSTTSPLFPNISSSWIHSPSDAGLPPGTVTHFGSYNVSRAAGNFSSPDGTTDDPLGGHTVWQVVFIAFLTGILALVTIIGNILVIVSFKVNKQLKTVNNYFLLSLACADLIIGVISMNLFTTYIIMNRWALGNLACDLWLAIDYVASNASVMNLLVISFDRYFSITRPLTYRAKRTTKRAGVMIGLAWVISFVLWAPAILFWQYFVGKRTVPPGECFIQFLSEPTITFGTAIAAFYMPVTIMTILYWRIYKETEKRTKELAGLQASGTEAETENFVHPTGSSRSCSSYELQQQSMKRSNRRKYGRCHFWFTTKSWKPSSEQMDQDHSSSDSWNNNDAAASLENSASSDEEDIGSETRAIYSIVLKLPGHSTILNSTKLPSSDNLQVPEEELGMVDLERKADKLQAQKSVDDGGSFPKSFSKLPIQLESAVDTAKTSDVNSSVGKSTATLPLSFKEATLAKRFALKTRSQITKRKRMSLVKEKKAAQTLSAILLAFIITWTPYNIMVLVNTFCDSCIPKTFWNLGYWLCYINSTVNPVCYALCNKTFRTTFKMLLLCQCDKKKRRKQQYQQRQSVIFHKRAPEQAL", "experiment": "Radioligand binding assay for muscarinic receptors (hM3)", "details": "[3H]-NMS displacement, CHO cell membranes", "protocol": "Cell Culture and Membrane Preparation from Cells Expressing Human M1, M2, M3 and M4 Muscarinic Receptors\nCHO cell lines stably expressing cloned human hM1, hM2, hM3 and hM4 muscarinic receptor subtypes, respectively, were grown to near confluency in HAM's F-12 media supplemented with 10% FBS and 250 μg/mL Geneticin. The cells were grown in a 5% CO2, 37° C. incubator and lifted with 2 mM EDTA in dPBS. Cells were collected by 5 minute centrifugation at 650×g, and cell pellets were either stored frozen at −80° C. or membranes were prepared immediately for use. […] The protein concentration of the membrane suspension was determined by the method described in Lowry et al., 1951, Journal of Biochemistry, 193, 265. […]\nRadioligand binding assays for cloned human muscarinic receptors were performed in 96-well microtiter plates in a total assay volume of 100 μL. […] Filter plates were rinsed three times with wash buffer (10 mM HEPES) to remove unbound radioactivity. […] The plates were then counted in a PerkinElmer Topcount liquid scintillation counter (PerkinElmer Inc., Wellesley, Mass.). Binding data were analyzed by nonlinear regression analysis with the GraphPad Prism Software package (GraphPad Software, Inc., San Diego, Calif.) using the one-site competition model. […]"}, "[2]": {"system": "His-induced bronchoconstriction", "experiment": "Bronchoprotection in guinea pig model of histamine-induced bronchoconstriction", "format": "in vivo", "details": "inhalation", "protocol": "Duration of Bronchoprotection in Guinea Pig Models of Acetylcholine-Induced or Histamine-Induced Bronchoconstriction\nTo isolate muscarinic antagonist activity in the acetylcholine-induced bronchoconstriction model, the animals were administered propanolol, a compound that blocks β receptor activity, prior to the administration of acetylcholine. Duration of bronchoprotection in the histamine-induced bronchoconstriction model reflects β2 adrenergic receptor agonist activity.\nGroups of 6 male guinea pigs (Duncan-Hartley (HsdPoc:DH) Harlan, Madison, Wis.) weighing between 250 and 350 g were individually identified by cage cards. Throughout the study, animals were allowed access to food and water ad libitum.\nTest compounds were administered via inhalation over 10 minutes in a whole-body exposure dosing chamber (R&S Molds, San Carlos, Calif.). […] This value was measured gravimetrically by comparing pre- and post-nebulization weights of the filled nebulizer.\nThe bronchoprotective effects of test compounds administered via inhalation were evaluated using whole body plethysmography at 1.5, 24, 48 and 72 hours post-dose. […]\nOnce it was determined that baseline values were within the range of 0.3-0.9 mL/cm H2O for compliance and within the range of 0.1-0.199 cm H2O/mL per second for resistance, the pulmonary evaluation was initiated. […]"}},
  "note": "pKi: −log10 of the molar value.",
  "data": [
    {"smiles": "COc1cc(NC(=O)CCN2CCC(OC(=O)Nc3ccccc3-c3ccccc3)CC2)c(Cl)cc1CNC[C@H](O)c1ccc(O)c2[nH]c(=O)ccc12", "note": "[compound of formula I, biphenyl-2-ylcarbamic acid 1-[2-(2-chloro-4-{[(R)-2-hydroxy-2-(8-hydroxy-2-oxo-1,2-dihydroquinolin-5-yl)ethylamino]methyl}-5-methoxyphenylcarbamoyl)ethyl]piperidin-4-yl ester]", "values": [
      {"measurement": "pKi", "setting": "[1]", "result": "> 8.00"},
      {"measurement": "bronchoprotective effect against His-induced bronchoconstriction", "setting": "[2]", "result": "dose-dependent bronchoprotective effect"}
    ]}
  ]
}
